Assay results: publication PMC6086891, “Adenosine Kinase couples sensing of cellular potassium depletion to purine metabolism” (Scientific Reports, 2018)
Each block holds one molecule with its values, some of them ahead of it.

Key:
Assay type in all cases: binding
Adenosine Kinase (mADK) [1] = biological target: T1, Adenosine Kinase (mADK) (Mus musculus, UniProt P55264, D310P); test: 2D […]-1H HSQC titration and 1D 1H STD NMR (weaker than wild type)
T1 construct: gene Adk

Adenosine Kinase (mADK) [2] = biological target: T2, Adenosine Kinase (mADK) (Mus musculus, UniProt P55264); test: 2D […]-1H HSQC titration and 1D 1H STD NMR; parameters: gene Adk
Target sequence in this assay (P55264 whole entry, the tested form may be a part): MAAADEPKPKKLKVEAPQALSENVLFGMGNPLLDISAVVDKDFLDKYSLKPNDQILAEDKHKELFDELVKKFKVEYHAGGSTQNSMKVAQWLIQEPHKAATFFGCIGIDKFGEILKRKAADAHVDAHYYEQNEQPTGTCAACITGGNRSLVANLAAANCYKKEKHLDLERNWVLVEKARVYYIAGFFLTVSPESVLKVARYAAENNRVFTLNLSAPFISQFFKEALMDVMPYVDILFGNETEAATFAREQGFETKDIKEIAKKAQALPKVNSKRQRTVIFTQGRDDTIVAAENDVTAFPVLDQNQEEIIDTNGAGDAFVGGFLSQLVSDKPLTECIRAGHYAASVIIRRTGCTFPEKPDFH

Adenosine Kinase (mADK) [3] = biological target: T2, Adenosine Kinase (mADK); test: X-ray crystal structure, […] Å ternary complex mADK:ADO:ADP; parameters: gene Adk; full-length mADK (Met1 to His362); model residues 20 to 360
Target sequence in this assay (P55264 whole entry, the tested form may be a part): as above

Adenosine Kinase (mADK) [4] = biological target: T2, Adenosine Kinase (mADK); test: X-ray crystal structure, […] Å binary complex (also the […] Å ternary complex 5KB5); kinetics show competitive inhibition against ATP; parameters: gene Adk; Δ19mADK, Leu20 – Phe360 (binary complex); full-length mADK (ternary complex)
Target sequence in this assay (P55264 20-360): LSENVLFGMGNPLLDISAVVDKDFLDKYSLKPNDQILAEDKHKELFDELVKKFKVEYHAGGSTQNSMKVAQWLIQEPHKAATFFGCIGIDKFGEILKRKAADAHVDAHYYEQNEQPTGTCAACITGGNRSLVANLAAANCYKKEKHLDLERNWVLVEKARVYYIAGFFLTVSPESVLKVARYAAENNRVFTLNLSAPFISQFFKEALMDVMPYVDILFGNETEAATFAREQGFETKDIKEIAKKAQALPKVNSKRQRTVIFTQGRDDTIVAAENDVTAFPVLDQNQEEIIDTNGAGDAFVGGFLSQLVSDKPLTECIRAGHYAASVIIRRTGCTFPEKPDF

T1 sequence (P55264 whole entry D310P): as the sequence (P55264 whole entry, the tested form may be a part) above, with D310P counted along it

SMILES: Nc1ncnc2c1ncn2[C@@H]1O[C@H](CO[P@](=O)(O)O[P@](=O)(O)O[P@@](=O)(O)S)[C@@H](O)[C@H]1O [ATPγS, adenosine triphosphate-gamma-S]
2D 15N-1H HSQC titration and 1D 1H STD NMR (weaker than wild type) (Adenosine Kinase (mADK) [1]): 1D ^1H STD NMR indicate that the D310P mutant has an unfavorable interaction with ATPγS relative to the wild-type mADK | 2D 15N-1H HSQC titration and 1D 1H STD NMR (Adenosine Kinase (mADK) [2]): ATPγS caused significant chemical shift changes in the wild-type mADK, especially in the residues around the BS1 site

X-ray crystal structure, 1.8 Å ternary complex mADK:ADO:ADP (Adenosine Kinase (mADK) [3]): In this complex, ADP occupies BS1.
SMILES: Nc1ncnc2c1ncn2[C@@H]1O[C@H](COP(=O)(O)OP(=O)(O)O)[C@@H](O)[C@H]1O [ADP, adenosine-5′-diphosphate]

SMILES: Nc1ncnc2c1ncn2[C@@H]1O[C@H](CO)[C@@H](O)[C@H]1O [ADO, adenosine]
X-ray crystal structure, 1.2 Å binary complex (also the 1.8 Å ternary complex 5K) (Adenosine Kinase (mADK) [4]): In the mADK:ADO complex, electronic density for ADO was identified in the BS1 site
